Results reported in patent US20060025566A1, “Macrocyclic modulators of the ghrelin receptor” (Tranzyme Pharma Inc., priority 2003, published 2006).
Read-outs that look alike come from different tables or passages of the source.

Columns and labels:
[1] = target: T1, human growth hormone secretagogue receptor (hGHS-R1a) (Homo sapiens, UniProt Q92847); assay: Competitive radioligand binding assay (ghrelin receptor), [125I]-ghrelin displacement on GHS-R/HEK 293 membranes; settings: read-out: Ki
T1 construct: purchased PerkinElmer BioSignal #RBHGHSM, lot#1887; host or cells: HEK-293, stably transfected (membranes)

[2] = target: human ghrelin receptor (hGHS-R1a) (Homo sapiens, UniProt Q92847); assay: Aequorin functional assay (ghrelin receptor), CHO-K1 cells co-expressing Gα16 and aequorin; type: cell-based; settings: functional (agonist) activity, standard method; TFA salts unless otherwise noted
Text: Coelenterazine (Molecular Probes, Leiden, The Netherlands). […] Compound Handling
• 1. […] Key Aspects of Method • 1. […] Results

motilin receptor = motilin receptor (Homo sapiens, UniProt O43193); assay: Selectivity for the ghrelin receptor versus the motilin receptor; type: binding
Text: The level of agonist activity and selectivity for representative compounds of the invention are shown below in Table 4.

[3] = Pharmacokinetic analysis in rats (i.v., s.c., p.o.); type: in vivo; settings: rat, typical dose 2 mg/kg
Method: D. Pharmacokinetic Analysis of Representative Compounds of the Invention
Typical Dose • 1. Intravenous (i.v.): 2 mg/kg • 2. Subcutaneous (s.c): 2 mg/kg
Plasma Collection • 1. Same protocol for all dosing groups • 2.
Whole blood samples were chilled and immediately processed by centrifugation to obtain plasma.
Plasma samples were stored frozen (−70° C.) until analysis.

[4] = system: gastric emptying in fasted rats; assay: Gastric emptying in fasted rats (phenol red methylcellulose meal); type: in vivo, rat
Method: To examine the effects of compounds of the invention in a model for gastroparesis, compounds were evaluated for possible effects on gastric emptying in fasted rats.
GHRP-6 and test samples were dissolved in vehicle of 9% HPBCD/0.9% NaCl. Immediately following oral administration of methylcellulose (2%) containing phenol red (0.05%) (2 mL/rat), test substances or vehicle (9% HPBCD/0.9% NaCl) were each administered intravenously (i.v.) at a dosing volume of 5 mL/kg.
Male Wistar rats were provided by LASCO (A Charles River Licensee Corporation, Taiwan). Space allocation for 6 animals was 45×23×15 cm. Animals were housed in APEC® cages and maintained in a controlled temperature (22° C.-24° C.) and humidity (60%-80%) environment with 12 h light, 12 h dark cycles for at least one week in the laboratory prior to being used. Free access to standard lab chow for rats (Lab Diet, Rodent Diet, PMI Nutrition International, USA) and tap water was granted. All aspects of this work including housing, experimentation and disposal of animals were performed in general accordance with the Guide for the Care and Use of Laboratory Animals (National Academy Press, Washington, D.C., 1996).
Test substances were each administered intravenously to a group of 5 O/N-fasted Wistar derived male rats weighing 200±20 g immediately after methylcellulose (2%) containing phenol red (0.05%) was administered orally at 2 mL/animal. […] Following protein precipitation by 20% trichloroacetic acid (0.5 mL) and re-alkalization of the supernatant with 0.1 N NaOH, total phenol red remaining in the stomach was determined by a colorimetric method at 560 nm. A 30 percent or more (≧30%) increase in gastric emptying, detected as the decrease in phenol red concentration in the stomach relative to the vehicle control group, is considered significant.
• 1. […] Total phenol red remaining in the stomach was quantified by a colorimetric method at 560 nm. • 5. A >30% increase in gastric emptying, detected based on the phenol red concentration in comparison to the control group, is considered significant. […]

morphine-treated rats = assay: Model of opioid-delayed gastric emptying and gastrointestinal transit (morphine) in rats; type: in vivo, rat; settings: 3 mg/kg s.c., FIG. 16A
Text: 7. The Effect of Compounds of the Invention on Gastric Emptying and Gastrointestinal Transit in a Model of Opioid-Delayed Gastric Emptying
Opioid analgesics, such as morphine, are well known to delay gastrointestinal transit which is an important side-effect for this class of drugs. The clinical term for this syndrome is opioid bowel dysfunction (OBD). Importantly, patients recovering from abdominal surgery experience post-operative ileus that is further exacerbated by concomitant opioid therapy for post-surgical pain.
• 1. […] Methods • 1. Rats (male, Sprague-Dawley, 250-300 g) are implanted with jugular vein catheters to accommodate dosing of test articles. • 2. Overnight-fasted rats are administered morphine (3 mg/kg s.c.). • 3. […] Radioactivity (^99mTc) in each tissue isolate is measured as a means of measuring the transit of the meal. Results

[5] = binding activity, standard method, TFA salts unless otherwise noted
[6] = binding activity at the human ghrelin receptor, [125I]-ghrelin competition, GHS-R/HEK 293 membranes
[7] = binding activity at the human ghrelin receptor, [125I]-ghrelin displacement

human ghrelin receptor (hGHS-R1a), sequence (Q92847 whole entry): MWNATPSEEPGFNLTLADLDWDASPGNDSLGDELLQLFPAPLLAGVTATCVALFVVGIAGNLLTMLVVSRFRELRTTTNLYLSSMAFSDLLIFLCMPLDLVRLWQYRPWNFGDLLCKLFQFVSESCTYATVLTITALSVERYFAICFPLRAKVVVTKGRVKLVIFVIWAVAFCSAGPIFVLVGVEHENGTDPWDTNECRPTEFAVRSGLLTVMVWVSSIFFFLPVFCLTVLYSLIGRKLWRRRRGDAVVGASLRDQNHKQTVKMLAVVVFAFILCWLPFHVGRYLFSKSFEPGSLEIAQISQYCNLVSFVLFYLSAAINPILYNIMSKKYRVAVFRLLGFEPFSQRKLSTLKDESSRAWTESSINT
T1 sequence (Q92847 whole entry): as above
motilin receptor, sequence (O43193 whole entry): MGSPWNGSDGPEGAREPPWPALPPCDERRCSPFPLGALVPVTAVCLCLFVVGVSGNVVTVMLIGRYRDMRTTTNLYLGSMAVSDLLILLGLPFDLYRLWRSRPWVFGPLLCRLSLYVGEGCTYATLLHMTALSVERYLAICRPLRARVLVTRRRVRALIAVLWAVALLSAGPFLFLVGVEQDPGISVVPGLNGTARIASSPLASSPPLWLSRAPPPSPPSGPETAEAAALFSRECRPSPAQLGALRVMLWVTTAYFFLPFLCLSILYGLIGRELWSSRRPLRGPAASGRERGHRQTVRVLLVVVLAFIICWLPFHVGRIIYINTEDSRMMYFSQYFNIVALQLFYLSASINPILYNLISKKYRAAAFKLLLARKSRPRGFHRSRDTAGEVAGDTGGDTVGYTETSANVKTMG

SMILES | Ki [1, 5] | EC50 [2] | Selectivity (motilin receptor) | Ki [1, 6] | further results
CC1C(=O)NC(Cc2ccc(F)cc2)C(=O)NCC2CC2c2ccccc2OCCNC(C2CC2)C(=O)N1C (single isomer, unassigned) [389a] | 0.01 to 0.1 µM | 0.1 to 1 µM | 450/1 | – | –
CC(C)CC1NCCOc2ccccc2C=CCNC(=O)C(Cc2cccc(Cl)c2)NC(=O)C2(CCCC2)NC1=O (centres unmarked) [compound 21] | 0.0001 to 0.01 µM | 0.001 to 0.1 µM | 1078/1 | 0.0001 to 0.01 µM | –
CC(C)C[C@@H]1NCCOc2ccccc2C=CCNC(=O)[C@H](Cc2ccccc2Cl)NC(=O)C2(CCCC2)NC1=O (stereo in doubt) [compound 20] | 0.0001 to 0.01 µM | 0.001 to 0.1 µM | 1044/1 | 0.0001 to 0.01 µM | –
CCC(C)C1NCCOc2ccccc2CCCNC(=O)C(Cc2ccc(OC)cc2)NC(=O)C(C)N(C)C1=O (centres unmarked) [compound 27] | 0.0001 to 0.01 µM | 0.001 to 0.1 µM | >7100/1 | 0.0001 to 0.01 µM | –
CCCC1NCCOc2ccccc2CCCNC(=O)C(Cc2ccccc2)NC(=O)C(C)N(C)C1=O (centres unmarked) [Compound 4] | 0.01 to 0.1 µM | 0.001 to 0.1 µM | 3012/1 | 0.01 to 0.1 µM | –
CC(C)C1NCCOc2ccccc2C=CCNC(=O)C(Cc2ccccc2)NC(=O)C(C)N(C)C1=O (centres unmarked) [compound 19] | 0.1 to 1 µM | – | >1700/1 | – | –
CC[C@H](C)[C@@H]1NCCOc2ccccc2CCCNC(=O)[C@@H](Cc2ccc3ccccc3c2)NC(=O)[C@@H](C)N(C)C1=O [compound 31] | 0.0001 to 0.01 µM | 0.001 to 0.1 µM | 4900/1 | 0.0001 to 0.01 µM | –
C[C@@H]1C(=O)N[C@H](Cc2ccccc2)C(=O)NCCCc2ccccc2OCCN[C@@H](C2CC2)C(=O)N1C [compound 17] | 0.0001 to 0.01 µM | 0.001 to 0.1 µM | 2500/1 | 0.0001 to 0.01 µM | –
CC1C(=O)NC(Cc2ccc(Cl)cc2Cl)C(=O)NCCCc2ccccc2OCCNC(C2CC2)C(=O)N1C (centres unmarked) [compound 314] | 0.0001 to 0.01 µM | 0.001 to 0.1 µM | >5500/1 | – | Ki [1, 7]: 0.0001 to 0.01 µM
CCC(C)C1NCCOc2ccccc2CCCNC(=O)C(Cc2ccc(Cl)cc2)NC(=O)C(C)N(C)C1=O (centres unmarked) [compound 25] | – | – | – | 0.0001 to 0.01 µM | Clearance [3]: 67 mL/min/kg; Elimination (t1/2, min) [3]: 31 min; gastric emptying ([4]; fasted rats, 30 μg/kg): demonstrated gastric emptying; increase in gastric emptying relative to the vehicle control group ([4]; fasted rats, 100 μg/kg i.v.): 39%
CC1C(=O)NC(Cc2ccc(F)cc2)C(=O)NCCCc2ncccc2OCCNC(C2CC2)C(=O)N1C (single isomer, unassigned) [306a] | 0.01 to 0.1 µM | 0.001 to 0.1 µM | 714/1 | – | Ki [1, 7]: 0.01 to 0.1 µM
CCN(CC)CCNC(=O)c1cc(Cl)c(N)cc1OC [Metoclopramide, reference compound] | – | – | – | – | gastric emptying of a solid meal in naïve rat ([4]; i.v. immediately after meal, FIG. 14): significant gastric emptying
CCC(C)C1NCCOc2ccccc2CCCNC(=O)C(Cc2cccs2)NC(=O)C(C)N(C)C1=O (centres unmarked) [compound 34] | – | – | >1000/1 | – | –
C[C@@H]1C(=O)N[C@H](Cc2ccc(O)c(C(C)(C)C)c2)C(=O)NCCCc2ccccc2OCCN[C@@H](C2CC2)C(=O)N1C [compound 311] | 0.01 to 0.1 µM | – | 21/1 | – | –
CCC(C)C1NCCOc2cccnc2CCCNC(=O)C(Cc2ccccc2)NC(=O)C(C)N(C)C1=O (centres unmarked) [compound 177] | – | – | >100/1 | – | –
CCC(C)C1NCCCCCCCCNC(=O)C(Cc2cccc(Cl)c2)NC(=O)C2(CCCC2)NC1=O (centres unmarked) [compound 363] | – | – | 35/1 | – | –
CCCCC1NCCOc2ccccc2CCCNC(=O)C(Cc2ccccc2)NC(=O)CN(C)C1=O (centres unmarked) [Compound 1] | – | – | 142/1 | – | –
CC[C@H](C)[C@@H]1NCCOc2ccccc2CCCNC(=O)[C@@H](Cc2cccc(Cl)c2)NC(=O)[C@@H](C)N(C)C1=O [compound 24] | 0.0001 to 0.01 µM | – | 3039/1 | 0.0001 to 0.01 µM | –
CC1C(=O)NC(Cc2ccc(F)cc2)C(=O)NCCCc2cc(NS(C)(=O)=O)ccc2OCCNC(C2CC2)C(=O)N1C (centres unmarked) [compound 374] | – | – | 250/1 | – | –
CCC(C)C1NCCOc2ccccc2CCCNC(=O)C(Cc2ccccc2)NC(=O)C(C)N(CC)C1=O (centres unmarked) [compound 43] | 0.01 to 0.1 µM | – | 3700/1 | 0.01 to 0.1 µM | –
CN1CC[C@]23c4c5ccc(O)c4O[C@H]2[C@@H](O)C=C[C@H]3[C@H]1C5 [Morphine, morphine] | – | – | – | – | gastric emptying and intestinal transit (morphine-treated rats): significantly delayed gastric emptying and intestinal transit
CCC(C)C1NCCOc2ccc(F)cc2CCCNC(=O)C(Cc2cccc(Cl)c2)NC(=O)C2(CCCC2)NC1=O (centres unmarked) [compound 382] | – | – | 74/1 | – | –
CC[C@H](C)[C@@H]1NCCOc2ccccc2CCCNC(=O)[C@@H](Cc2ccc(F)cc2)NC(=O)[C@@H](C)N(C)C1=O [compound 26] | 0.0001 to 0.01 µM | 0.001 to 0.1 µM | >7700/1 | 0.0001 to 0.01 µM | –
